Values after ≈ are worked out from the molar mass of the structure shown. Like-named read-outs stand apart in the source and are kept apart here. One block for each compound: values may come before it.
Legend:
MCF-7 cells [1] = experiment: MTS in vitro cytotoxicity / cell viability assay on MCF-7 breast cancer cells; format: cell-based; conditions: for IC50: Homo sapiens; for inhibition of MCF7 cells at low concentration / proliferative activity of cancer cells at low concentration: concentrations of less than or equal to 10 μM
Method: Compound A was compared with genistein to test the cell viability of MCF-7 cells. […] The cell viability was tested using the MTS in vitro cytotoxicity assay. This is considered the most convenient assay because of its ease of use, accuracy and rapid indication of toxicity (Malich G et al., Toxicology 124(3): 179-92 (1997).

[2] = test system: MDA-MB-468 (estrogen negative) cancer cells; experiment: Inhibition of MDA-MB-468 (estrogen negative) breast cancer cells; format: cell-based; conditions: for IC50, MDA-MB-468 cells / IC50: day 6; for IC50: Homo sapiens, MDA-MB-468, 144 h
PC3 cells = experiment: IC50 against PC3 cells; format: cell-based; conditions: Homo sapiens, PC-3
LNCap cells = experiment: IC50 against LNCap cells; format: cell-based; conditions: Homo sapiens
MCF-7 cells [3] = conditions: cited from earlier work; for effect on growth of MCF-7 cells at low concentration: at <10 μM
[4] = day 6 of incubation, Examples 10 and 11
[5] = MCF7, Example 8 table, read-out: IC50 against MCF-7 cells
[6] = MCF7, 24 h, 1 day of incubation, Example 8, read-out: IC50, cell viability of MCF-7 cells
[7] = MCF7, 48 h, 2 days of incubation, Example 8, read-out: IC50, cell viability of MCF-7 cells
[8] = MCF7, 72 h, 3 days of incubation, Example 8, read-out: IC50, cell viability of MCF-7 cells
[9] = MCF7, 144 h, day 6 of incubation, Examples 10 and 11, read-out: IC50, MCF-7 estrogen positive breast cancer cells
[10] = MCF7, 8 hours incubation, Example 9, read-out: IC50, MCF7 cells
[11] = MCF7, Example 9, incubation time not given, read-out: IC50, inhibitory effect on MCF7 cells (no significant effect)

IC50, MDA-MB-468 cells [2]: 43 µg/mL (≈ 157 µM)
SMILES: CC(C(=O)c1c(O)cc(O)cc1O)c1ccc(O)cc1 (centres unmarked) [6-hydroxy-O-Dma]
IC50, MCF-7 estrogen positive breast cancer cells (MCF-7 cells [1]; [4]): 33 µg/mL (≈ 120 µM)

SMILES: CC(C(=O)c1ccc(O)cc1O)c1ccc(O)c(O)c1 (centres unmarked) [(V), 1-(2,4,dihydroxyphenyl)-2-(3,4-dihydroxyphenyl)-propan-1-one]
IC50 (MCF-7 cells [1]; [5]): 10 to 20 µg/mL (≈ 36.5 to 72.9 µM)

IC50 (PC3 cells): 6.2 µg/mL (≈ 22.8 µM)
IC50 (LNCap cells): 7 µg/mL (≈ 25.7 µM)
SMILES: C=C(C(=O)c1ccc(O)cc1O)c1ccc(O)c(O)c1 [(VI), 1-(2,4-di-hydroxyphenyl)-2-(3,4-dihydroxyphenyl)-prop-2-cn-1-one]
IC50 (MCF-7 cells [1]; [5]): 3.2 µg/mL (≈ 11.8 µM)

SMILES: O=C1c2ccc(O)cc2OCC1c1ccc(O)c(O)c1 (centres unmarked) [(VII), 3′-hydroxy-dihydrodaidzen]
IC50 (MCF-7 cells [1]; [5]): ~28 µg/mL (≈ 103 µM)

SMILES: C=C(C(=O)c1cc(O)c(O)cc1O)c1ccc(O)cc1 [(VIII), 1-(2,4,5-trihydroxyphenyl)-2-(4-hydroxyphenyl)-prop-2-cn-1-one]
IC50 (MCF-7 cells [1]; [5]): < 8 µg/mL

IC50 [2]: 6.8 µg/mL (≈ 24.8 µM)
SMILES: CC(C(=O)c1cc(O)c(O)cc1O)c1ccc(O)cc1 (centres unmarked) [Compound A, 1-(2,4,5-trihydroxyphenyl)-2-(4-hydroxyphenyl)-propan-1-one]
effect on growth of MCF-7 cells at low concentration (MCF-7 cells [1]; 2.5 micrograms/ml, within 8 hours of incubation and at days 1 and 2): inhibited the growth
IC50 (MCF-7 cells [1]; [6]): 6 µg/mL (≈ 21.9 µM)
IC50 (MCF-7 cells [1]; [7]): 6.5 µg/mL (≈ 23.7 µM)
IC50 (MCF-7 cells [1]; [8]): 7 µg/mL (≈ 25.5 µM)
IC50 (MCF-7 cells [1]; [9]): 2.1 µg/mL (≈ 7.66 µM)
IC50 (MCF-7 cells [1]; [10]): 6 µg/mL (≈ 21.9 µM)
IC50 (MCF-7 cells [1]; [5]): 6 to 10 µg/mL (≈ 21.9 to 36.5 µM)
IC50 (MCF-7 cells [1]; MCF7, incubations at 24, 48, 72 and 144 hours, Example 9, read-out: IC50, MCF7 cells): 4 to 7 µg/mL (≈ 14.6 to 25.5 µM)
inhibition of MCF7 breast cancer cells compared with genistein, daidzein, precursors and metabolites (MCF-7 cells [1]; concentrations of 15-40 μg/ml, Example 9): significant inhibition
inhibition of MCF7 cells at low concentration (MCF-7 cells [1]; Example 9): no significant inhibition
proliferative activity of cancer cells at low concentration (MCF-7 cells [1]; MCF7, Example 9): no proliferative activity
times more inhibitive than O-Dma and 6-hydroxy-O-Dma ([2]; MDA-MB-468, day 6): 3-7 times

SMILES: O=c1c(-c2ccc(O)cc2)coc2cc(O)c(O)cc12 [Factor 2, 6,7,4′-trihydroxyisoflavone]
IC50 (MCF-7 cells [1]; [9]): 12 µg/mL (≈ 44.4 µM)

IC50, MDA-MB-468 cells [2]: 20 µg/mL (≈ 77.4 µM)
SMILES: CC(C(=O)c1ccc(O)cc1O)c1ccc(O)cc1 (centres unmarked) [O-Dma, O-desmethylangolensin]
IC50, MCF-7 estrogen positive breast cancer cells (MCF-7 cells [1]; [4]): 38 µg/mL (≈ 147 µM)

SMILES: COc1ccc(-c2coc3cc(O)cc(O)c3c2=O)cc1 [biochanin A]
IC50 (MCF-7 cells [1]; MCF7, 72 and 144 hours incubation, Example 9, read-out: IC50, inhibitory effect on MCF7 cells): 18 to 23 µg/mL (≈ 63.3 to 80.9 µM)
effect on growth of MCF-7 cells at low concentration (MCF-7 cells [3]): can enhance the growth

SMILES: O=c1c(-c2ccc(O)cc2)coc2cc(O)ccc12 [daidzein]
IC50 (MCF-7 cells [1]; [11]): ≥ 36 µg/mL
effect on growth of MCF-7 cells at low concentration (MCF-7 cells [3]): can enhance the growth

SMILES: Oc1ccc([C@H]2COc3cc(O)ccc3C2)cc1 [equol]
IC50 (MCF-7 cells [1]; [11]): ≥ 36 µg/mL
effect on growth of MCF-7 cells at low concentration (MCF-7 cells [3]): can enhance the growth

SMILES: COc1ccc(-c2coc3cc(O)ccc3c2=O)cc1 [formononetin]
IC50 (MCF-7 cells [1]; [11]): ≥ 36 µg/mL

IC50 [2]: 8.8 µg/mL (≈ 32.6 µM)
SMILES: O=c1c(-c2ccc(O)cc2)coc2cc(O)cc(O)c12 [genistein]
IC50 (MCF-7 cells [1]; [6]): 32 µg/mL (≈ 118 µM)
IC50 (MCF-7 cells [1]; [7]): 22 µg/mL (≈ 81.4 µM)
IC50 (MCF-7 cells [1]; [8]): 15 µg/mL (≈ 55.5 µM)
IC50 (MCF-7 cells [1]; MCF7, 144 h, 6 days of incubation, Example 8, read-out: IC50, cell viability of MCF-7 cells): 18 µg/mL (≈ 66.6 µM)
IC50 (MCF-7 cells [1]; [10]): > 40 µg/mL
IC50 (MCF-7 cells [1]; MCF7, 48 hours incubation, Example 9, read-out: IC50, MCF7 cells): 38 µg/mL (≈ 141 µM)
IC50 (MCF-7 cells [1]; MCF7, 144 hours incubation, Example 9, read-out: IC50, MCF7 cells): 15 µg/mL (≈ 55.5 µM)
effect on growth of MCF-7 cancer cells at low concentration (MCF-7 cells [1]; concentrations <10 μM, Example 8): enhance rather than inhibit the growth
inhibition of MCF7 cells at low concentration (MCF-7 cells [1]; Example 9): no significant inhibition
proliferative activity of cancer cells at low concentration (MCF-7 cells [1]; MCF7, Example 9): some proliferative activity
effect on growth of MCF-7 cells at low concentration (MCF-7 cells [3]): can enhance the growth
IC50 (MCF-7 cells [3]; induced by 1-(o-chlorophenyl)-1-(p-chlorophenyl)-2,2,2-trichloroethane, 5-octylphenol, 4-nonylphenol, read-out: IC50, inhibition of proliferation of MCF-7 cells induced by environmental chemicals): 25 to 33 µM

From US7799955B2, “Isoflavone metabolites” (priority 1999, dated 2010)
